Data on one compound can be found in paper PMC8271486, “Assessment of Antidiabetic Activity of the Shikonin by Allosteric Inhibition of Protein-Tyrosine Phosphatase 1B (PTP1B) Using State of Art: An In Silico and In Vitro Tactics” (Molecules, 2021).

For orientation: IC50 means the concentration at which inhibition is half-maximal.

The test addresses T1, Protein tyrosine phosphatase 1B (PTP1B) (Homo sapiens, UniProt P18031).
T1 construct: gene PTPN1
T1 sequence (P18031 1-435): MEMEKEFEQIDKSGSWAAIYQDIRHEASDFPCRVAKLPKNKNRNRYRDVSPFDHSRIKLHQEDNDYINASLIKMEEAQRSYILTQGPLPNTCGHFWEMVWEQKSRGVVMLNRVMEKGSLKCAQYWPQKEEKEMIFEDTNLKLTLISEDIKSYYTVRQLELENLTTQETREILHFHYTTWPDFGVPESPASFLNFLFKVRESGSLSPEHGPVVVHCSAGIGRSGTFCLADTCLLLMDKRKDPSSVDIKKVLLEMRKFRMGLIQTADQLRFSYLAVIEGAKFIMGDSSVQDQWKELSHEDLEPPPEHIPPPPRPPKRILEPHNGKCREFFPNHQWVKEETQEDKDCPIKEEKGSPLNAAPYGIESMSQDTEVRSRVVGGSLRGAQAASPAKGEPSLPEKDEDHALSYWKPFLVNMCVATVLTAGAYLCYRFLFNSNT
Kind of test: pNPP hydrolysis assay ([…] nm) with human recombinant PTP1B; Dixon and Lineweaver-Burk kinetics. In kind it is biochemical.

Turning to `CC(C)=CC[C@@H](O)C1=CC(=O)c2c(O)ccc(O)c2C1=O` [Shikonin, 5,8-dihydroxy-2-[(1R)-1-hydroxy-4-methylpent-3-enyl] naphthalene-1,4-dione], the IC50 amounted to 15.5 µM.
